Common to all, as to format: in vivo
One experiment concerns Leucania separata. Put plainly: Insecticidal activity against Leucania separata, Airbrush spraying of corn leaf segments. The conditions noted are these: Mythimna separata, foliar, 72 h; dose 0.05 mg/L, three days after administration, 3rd instar larvae; read-out: lethality rate to Leucania separata. The method, then:
(§1) The compound to be determined was dissolved in a mixed solvent of acetone/methanol (1:1), followed by dilution with water containing 0.1% (wt) Tween 80 to a desired concentration.
(§2) The activities of the respective compounds against Leucania separata, Plutella xylostella, and Chilo suppressalis were determined by Airbrush spraying method.
(§3) The determination method was as follows: Corn leaves were cut into 2 cm long segments; the pressure of Airbrush spraying was 10 psi (about 0.7 kg/cm^2); both sides of each leaf segment were sprayed with 0.5 mL of the compound solution to be tested. After drying in the shade, ten 3nd instar larvae were inoculated for each treatment, and each treatment was replicated 3 times. After treatment, they were cultured in an observation room at a temperature of 25° C. and a relative humidity of 60-70%, and the number of surviving insects was examined and the mortality was calculated three days after administration.

The subject of the next experiment is Plutella xylostella. Put plainly: Insecticidal activity against Plutella xylostella, Airbrush spraying of cabbage leaf discs. The conditions noted are these: foliar, 72 h; for pest or weed control at 0.156 µg/mL: dose 0.156 mg/L; for pest or weed control at 0.156 µg/mL / pest or weed control at 0.313 µg/mL: three days after administration, 3rd instar larvae, read-out: lethality rate to Plutella xylostella; for pest or weed control at 0.313 µg/mL: dose 0.313 mg/L; for mortality at 0.156 µg/mL: 0.156 mg/L, read-out: Mortality (%, 3 days after administration) 0.156 mg/L; for mortality at 0.156 µg/mL / mortality at 0.313 µg/mL / mortality at 0.625 µg/mL / mortality at 1.25 µg/mL: parallel comparative test; for mortality at 0.313 µg/mL: 0.313 mg/L, read-out: Mortality (%, 3 days after administration) 0.313 mg/L; for mortality at 0.625 µg/mL: 0.625 mg/L, read-out: Mortality (%, 3 days after administration) 0.625 mg/L; for mortality at 1.25 µg/mL: 1.25 mg/L, read-out: Mortality (%, 3 days after administration) 1.25 mg/L. The method, then: as §1, §2
as §3, with “Cabbage” for “Corn”, “made” for “cut”, “into leaf discs with a diameter of” for “into”, “by using a hole puncher;” for “long segments;”, “disc” for “segment”, “3rd” for “3nd”

The test system of the next experiment is Tetranychus cinnabarinus. The experiment in a line: Acaricidal activity against Tetranychus cinnabarinus in greenhouse, bean seedling spraying. The conditions noted are these: solution concentration 5 mg/L, adult mites, after 72 hours, read-out: lethality rate to Tetranychus cinnabarinus. As for the experimental part:
A bean seedling with two true leaves was taken for inoculating 30-40 adult mites of Tetranychus cinnabarinus. After examining the cardinal number, the whole seedling was treated by spraying with a hand-held sprayer, each treatment being replicated 3 times, and then placed in a standard observation room. The number of surviving mites was examined after 72 hours, and the mortality was calculated.

A further experiment has as its system Chilo suppressalis. Put plainly: Insecticidal activity against Chilo suppressalis, spraying of rice seedlings. The conditions noted are these: 72 h; for pest or weed control at 1 µg/mL: dose 1 mg/L; for pest or weed control at 1 µg/mL / pest or weed control at 0.5 µg/mL: 3 days after administration, 3rd instar larvae, read-out: lethality rate to Chilo suppressalis; for mortality at 0.25 µg/mL: 0.25 mg/L, read-out: Mortality (%, 3 days after administration) 0.25 mg/L; for mortality at 0.25 µg/mL / mortality at 0.5 µg/mL / mortality at 1 µg/mL / mortality at 5 µg/mL: parallel comparative test; for mortality at 0.5 µg/mL: 0.5 mg/L, read-out: Mortality (%, 3 days after administration) 0.5 mg/L; for mortality at 1 µg/mL: 1 mg/L, read-out: Mortality (%, 3 days after administration) 1 mg/L; for mortality at 5 µg/mL: 5 mg/L, read-out: Mortality (%, 3 days after administration) 5 mg/L; for pest or weed control at 0.5 µg/mL: dose 0.5 mg/L. As for the experimental part: as §1, §2
The determination method was as follows: 1) Preparation of rice seedlings: rice plants were cultivated in a plastic cup with a diameter of 4.5 cm and a height of 4 cm in a thermostatic chamber (temperature 26-28° C., relative humidity 60-80%, illumination 16 hL: 8 hD), and when the rice plants were developed to have 4-5 leaves, strong seedlings with identical growth vigour were selected for chemical treatment, and each treatment was replicated 3 times. 2) Preparation of insects to be tested: Chilo suppressalis, 3rd instar larvae, continuous lab rearing. 3) Inoculation of insects by spraying rice plant stems: The whole rice seedlings were sprayed evenly by using the spraying method, with 15 mL of the compound solution for each treatment. Firstly, the blank control was treated, and then the above procedure was replicated according to the order of test concentration from low to high. After rice seedlings were spray-treated, they were placed in the shade to dry, and the stems about 5 cm from the stem bases were cut off to feed the insects to be tested. Glass culture dishes with a diameter of 90 mm were prepared; each dish was padded with a filter paper at the bottom and added with water to keep moisture; about 5 rice stems were put into each dish and inoculated with 10 larvae, and each culture dish was then sealed with a non-woven and cultured in a thermostatic chamber. The number of residual live insects was examined 3 days after administration.

Take `CCOCCC(=O)N(CC(=O)NCC(F)(F)F)C(=O)c1ccc(C2=NOC(c3cc(Cl)c(F)c(Cl)c3)(C(F)(F)F)C2)cc1C` (stereo not shown) [Compound 34]: in the experiment with Leucania separata, the pest or weed control at 0.05 µg/mL was > 90%. In the experiment with Plutella xylostella, the pest or weed control at 0.156 µg/mL is > 90% and the pest or weed control at 0.313 µg/mL was > 90%. The pest or weed control at 5 µg/mL with Tetranychus cinnabarinus was ≥ 90%. Besides, the pest or weed control at 1 µg/mL with Chilo suppressalis is > 90%.
As for `COCCC(=O)N(CC(=O)NCC(F)(F)F)C(=O)c1ccc(C2=NOC(c3cc(Cl)cc(Cl)c3)(C(F)(F)F)C2)cc1C` (stereo not shown) [Compound 31], the pest or weed control at 0.05 µg/mL in the experiment with Leucania separata was > 90%. Also, in the experiment on Plutella xylostella, the mortality at 0.156 µg/mL was determined as 100%, the mortality at 0.313 µg/mL was determined as 100%, the mortality at 0.625 µg/mL amounted to 100% and the mortality at 1.25 µg/mL worked out at 100%. Moreover, in the experiment on Plutella xylostella, the pest or weed control at 0.156 µg/mL was > 90% and the pest or weed control at 0.313 µg/mL is > 90%. The pest or weed control at 5 µg/mL with Tetranychus cinnabarinus is ≥ 90%. Also, in the experiment with Chilo suppressalis, the mortality at 0.25 µg/mL was 80%, the mortality at 0.5 µg/mL was determined as 96.7%, the mortality at 1 µg/mL came to 100% and the mortality at 5 µg/mL came to 100%. In addition, in the experiment on Chilo suppressalis, the pest or weed control at 0.5 µg/mL is > 90% and the pest or weed control at 1 µg/mL is > 90%.
For `CCOCC(=O)N(CC(=O)NCC(F)(F)F)C(=O)c1ccc(C2=NOC(c3cc(Cl)c(F)c(Cl)c3)(C(F)(F)F)C2)cc1C` (stereo not shown) [Compound 22], the pest or weed control at 0.05 µg/mL in the experiment on Leucania separata is > 90%. Also, in the experiment with Plutella xylostella, the pest or weed control at 0.156 µg/mL was > 90% and the pest or weed control at 0.313 µg/mL was > 90%. The pest or weed control at 5 µg/mL in the experiment on Tetranychus cinnabarinus is ≥ 90%. Besides, the pest or weed control at 1 µg/mL in the experiment on Chilo suppressalis is > 90%.
For `Cc1cc(C2=NOC(c3cc(Cl)cc(Cl)c3)(C(F)(F)F)C2)ccc1C(=O)N(CC(=O)NCC(F)(F)F)C(=O)C1CC1` (stereo not shown) [Compound 1], the pest or weed control at 0.05 µg/mL in the experiment on Leucania separata was > 90%. The pest or weed control at 0.313 µg/mL in the experiment with Plutella xylostella was > 90%. In addition, the pest or weed control at 5 µg/mL in the experiment with Tetranychus cinnabarinus is ≥ 90%. In the experiment on Chilo suppressalis, the mortality at 0.25 µg/mL turned out to be 73.3%, the mortality at 0.5 µg/mL came out at 83.3%, the mortality at 1 µg/mL came out at 100% and the mortality at 5 µg/mL amounted to 100%. Moreover, in the experiment with Chilo suppressalis, the pest or weed control at 1 µg/mL was > 90%.
Regarding `CCC(=O)N(CC(=O)NCC(F)(F)F)C(=O)c1ccc(C2=NOC(c3cc(Cl)cc(Cl)c3)(C(F)(F)F)C2)cc1C` (stereo not shown) [KC3, reference compound], in the experiment with Chilo suppressalis, the mortality at 0.25 µg/mL was 0%, the mortality at 0.5 µg/mL came to 30%, the mortality at 1 µg/mL amounted to 100% and the mortality at 5 µg/mL was 100%.
On to `COC(=O)N(CC(=O)NCC(F)(F)F)C(=O)c1ccc(C2=NOC(c3cc(Cl)cc(Cl)c3)(C(F)(F)F)C2)cc1C` (stereo not shown) [KC1, reference compound], for which, in the experiment on Plutella xylostella, the mortality at 0.156 µg/mL came out at 20%, the mortality at 0.313 µg/mL was 36.7%, the mortality at 0.625 µg/mL is 70% and the mortality at 1.25 µg/mL was determined as 100%. The pest or weed control at 5 µg/mL in the experiment with Tetranychus cinnabarinus worked out at 0%. Besides, in the experiment with Chilo suppressalis, the mortality at 0.25 µg/mL was determined as 0%, the mortality at 0.5 µg/mL was 0%, the mortality at 1 µg/mL amounted to 0% and the mortality at 5 µg/mL turned out to be 10%.
Turning to `CCOCCC(=O)N(CC(=O)NCC(F)(F)F)C(=O)c1ccc(C2=NOC(c3cc(Cl)cc(Cl)c3)(C(F)(F)F)C2)cc1C` (stereo not shown) [Compound 33], in the experiment on Leucania separata, the pest or weed control at 0.05 µg/mL was > 90%. In the experiment with Plutella xylostella, the pest or weed control at 0.156 µg/mL was > 90% and the pest or weed control at 0.313 µg/mL was > 90%. Further, the pest or weed control at 5 µg/mL with Tetranychus cinnabarinus is ≥ 90%. Besides, in the experiment on Chilo suppressalis, the pest or weed control at 0.5 µg/mL was > 90% and the pest or weed control at 1 µg/mL was > 90%.
On to `Cc1cc(C2=NOC(c3cc(Cl)c(F)c(Cl)c3)(C(F)(F)F)C2)ccc1C(=O)N(CC(=O)NCC(F)(F)F)C(=O)C1CC1` (stereo not shown) [Compound 2], for which the pest or weed control at 0.05 µg/mL in the experiment on Leucania separata is > 90%. In the experiment on Plutella xylostella, the pest or weed control at 0.313 µg/mL was > 90%. Further, the pest or weed control at 5 µg/mL in the experiment with Tetranychus cinnabarinus is ≥ 90%. In addition, the pest or weed control at 1 µg/mL in the experiment on Chilo suppressalis was > 90%.
As to `CCOCC(=O)N(CC(=O)NCC(F)(F)F)C(=O)c1ccc(C2=NOC(c3cc(Cl)cc(Cl)c3)(C(F)(F)F)C2)cc1C` (stereo not shown) [Compound 21], the pest or weed control at 0.05 µg/mL in the experiment with Leucania separata is > 90%. Moreover, in the experiment with Plutella xylostella, the pest or weed control at 0.156 µg/mL was > 90% and the pest or weed control at 0.313 µg/mL was > 90%. Also, the pest or weed control at 5 µg/mL in the experiment with Tetranychus cinnabarinus was ≥ 90%. Also, in the experiment with Chilo suppressalis, the pest or weed control at 0.5 µg/mL was > 90% and the pest or weed control at 1 µg/mL was > 90%.
Consider `CCCCOCC(=O)N(CC(=O)NCC(F)(F)F)C(=O)c1ccc(C2=NOC(c3cc(Cl)cc(Cl)c3)(C(F)(F)F)C2)cc1C` (stereo not shown) [Compound 27], for which, in the experiment on Leucania separata, the pest or weed control at 0.05 µg/mL was > 90%. Also, in the experiment with Plutella xylostella, the pest or weed control at 0.156 µg/mL was > 90% and the pest or weed control at 0.313 µg/mL was > 90%. Moreover, the pest or weed control at 5 µg/mL with Tetranychus cinnabarinus is ≥ 90%. Also, in the experiment with Chilo suppressalis, the pest or weed control at 0.5 µg/mL was > 90% and the pest or weed control at 1 µg/mL is > 90%.
In the case of `CC(=O)N(CC(=O)NCC(F)(F)F)C(=O)c1ccc(C2=NOC(c3cc(Cl)cc(Cl)c3)(C(F)(F)F)C2)cc1C` (stereo not shown) [KC2, reference compound], in the experiment with Chilo suppressalis, the mortality at 0.25 µg/mL turned out to be 0%, the mortality at 0.5 µg/mL came to 53.3%, the mortality at 1 µg/mL amounted to 100% and the mortality at 5 µg/mL amounted to 100%.
On to `COCC(=O)N(CC(=O)NCC(F)(F)F)C(=O)c1ccc(C2=NOC(c3cc(Cl)cc(Cl)c3)(C(F)(F)F)C2)cc1C` (stereo not shown) [Compound 19], for which, in the experiment with Leucania separata, the pest or weed control at 0.05 µg/mL is > 90%. Also, in the experiment with Plutella xylostella, the mortality at 0.156 µg/mL is 100%, the mortality at 0.313 µg/mL worked out at 100%, the mortality at 0.625 µg/mL was determined as 100% and the mortality at 1.25 µg/mL amounted to 100%. Further, in the experiment with Plutella xylostella, the pest or weed control at 0.156 µg/mL was > 90% and the pest or weed control at 0.313 µg/mL was > 90%. Moreover, the pest or weed control at 5 µg/mL in the experiment on Tetranychus cinnabarinus was ≥ 90%. In the experiment with Chilo suppressalis, the mortality at 0.25 µg/mL was found to be 86.7%, the mortality at 0.5 µg/mL came out at 100%, the mortality at 1 µg/mL stood at 100% and the mortality at 5 µg/mL was found to be 100%. Also, in the experiment on Chilo suppressalis, the pest or weed control at 0.5 µg/mL was > 90% and the pest or weed control at 1 µg/mL was > 90%.
